pIC50: −log10 of the molar value.
What was measured:
[1] = system: SARS-COV-2 South Africa variant (linage: B.1.351); test: microbe, parasite or virus in culture; type: cell-based; details: Severe acute respiratory syndrome coronavirus 2, Calu-3; read-out: IC50, South African (B.1.351) variant
[2] = system: SARS-COV-2 Scotland variant (linage: B.1.222); test: microbe, parasite or virus in culture; type: cell-based; details: Severe acute respiratory syndrome coronavirus 2, Calu-3

Question: How did the pIC50 [1] turn out when CN1C(=O)c2ccccc2[S+]([O-])c2cc([N+](=O)[O-])ccc2S1(=O)=O (stereo not shown) [formula (Ia), 6-methyl-2-nitrodibenzo[d,g]-[1,6,2]dithiazocin-7(6H)-one 5,5, 12-trioxide] was run?
Answer: Its pIC50 is 5.03.

Question: What about the pIC50 [2] of the same compound?
Answer: Its pIC50 is 5.58.

Question: Which results are given for O=C1Nc2cc(C(F)(F)F)ccc2Oc2ccsc21 [formula (IIa), 7-(trifluoromethyl)benzo[b]-thieno[2,3-f][1,4]oxazepin-10(9H)-one]?
Answer: pIC50 [1]: 5.52; pIC50 [2]: 5.86
